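Tested at 5 concentrations; 48 h exposure; 96-well plates; endpoints linearly interpolated, else capped at highest concentration. GI50 is the concentration that inhibits growth by half.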 Calls of active or inactive are those of the source. Rule as the data show it: active = GI50 up to about 1.1 µM and inactive = higher.
Columns and labels:
Experiment in all cases: growth of human tumour cells (NCI), 48 h
HOP-18 = test system: HOP-18
LXFL 529 = test system: LXFL 529
M19-MEL = test system: M19-MEL
KM-20L2 = test system: KM-20L2
RXF 631 = test system: RXF 631
DMS-273 = test system: DMS-273
DLD-1 = test system: DLD-1
XF498 = test system: XF498
DMS-114 = test system: DMS-114

Row | SMILES | GI50 (HOP-18) | GI50 (LXFL 529) | GI50 (M19-MEL) | GI50 (KM-20L2) | GI50 (RXF 631) | GI50 (DMS-273) | GI50 (DLD-1) | GI50 (XF498) | GI50 (DMS-114)
1 | CCOC(=N)CC(=O)Nc1ccccc1CC | > 100 µM (inactive) | > 100 µM (inactive) | > 100 µM (inactive) | > 100 µM (inactive) | > 100 µM (inactive) | > 100 µM (inactive) | > 100 µM (inactive) | > 100 µM (inactive) | 
2 | CC1=C(C(=O)Nc2ccc([N+](=O)[O-])cc2)C(c2ccc3c(c2)OCO3)C(C(=O)Nc2ccc([N+](=O)[O-])cc2)=C(C)N1 | 23.3 µM (inactive) | 7.96 µM (inactive) | 13.3 µM (inactive) | 28 µM (inactive) |  | 9.77 µM (inactive) | 12 µM (inactive) |  | 8.55 µM (inactive)
3 | CC(Oc1ccc2cc(C(=O)c3ccccc3)c(=O)oc2c1)C(=O)O (centres undefined) | > 100 µM (inactive) | > 100 µM (inactive) | > 100 µM (inactive) | > 100 µM (inactive) | > 100 µM (inactive) |  |  | > 100 µM (inactive) | > 100 µM (inactive)
4 | C[C@@H]1C(=O)CC2C(C)(C)CCC[C@]2(C)[C@@]12CC[C@]1(C=COC1)O2 (some centres undefined) | > 100 µM (inactive) |  | 38.1 µM (inactive) | 46.7 µM (inactive) |  | 34.2 µM (inactive) |  |  | 35.6 µM (inactive)
5 | COC(=O)C1CC/C(=N/c2ccc(C)cc2C)N1 (centres undefined) | > 100 µM (inactive) | > 100 µM (inactive) | > 100 µM (inactive) | > 100 µM (inactive) | > 100 µM (inactive) | > 100 µM (inactive) | > 100 µM (inactive) | > 100 µM (inactive) | 
6 | CN1C(=O)C(=O)N2c3ccc(Cl)cc3C3(c4ccccc4)N=CC12O3 (centres undefined) | 20.4 µM (inactive) | 3 µM (inactive) | 3.57 µM (inactive) | 8.83 µM (inactive) |  | 4.35 µM (inactive) | 2.83 µM (inactive) | 3.13 µM (inactive) | 3.21 µM (inactive)
7 | CC(C)(C)C#C[P+](c1ccccc1)(c1ccccc1)c1ccccc1 | 0.855 µM (active) | 0.0586 µM (active) |  | 0.345 µM (active) | 1 µM (active) |  | 0.191 µM (active) |  | 
8 | COC(=O)c1c[nH]cc1CCc1c[nH]cc1C(=O)OC |  | > 100 µM (inactive) | > 100 µM (inactive) | > 100 µM (inactive) |  | > 100 µM (inactive) |  | > 100 µM (inactive) | 
9 | CC(C)c1cc(OCC(O)CO)cc(C(C)C)c1 (centres undefined) | > 100 µM (inactive) | > 100 µM (inactive) | > 100 µM (inactive) | > 100 µM (inactive) |  | > 100 µM (inactive) | > 100 µM (inactive) | > 100 µM (inactive) | > 100 µM (inactive)
10 | COc1cc2c(c(OC)c1OC)-c1ccc(SC)c(=O)cc1C(NC=O)CC2 (centres undefined) | > 45.7 µM (inactive) |  | < 0.01 µM (active) | < 0.01 µM (active) |  | < 0.01 µM (active) | < 0.01 µM (active) | < 0.01 µM (active) | < 0.01 µM (active)
11 | Cc1csc2c1C(=O)c1ccsc1C2=O | 1.95 µM (inactive) | 3.42 µM (inactive) | 0.175 µM (active) | 4.28 µM (inactive) |  | 1.94 µM (inactive) | 2.68 µM (inactive) | 2.35 µM (inactive) | 1.69 µM (inactive)
12 | Cc1ccc(NC(=O)CCC(=O)C(C#N)c2ccc(Cl)cc2)cc1C (centres undefined) | > 100 µM (inactive) | > 100 µM (inactive) | > 100 µM (inactive) | > 100 µM (inactive) |  | > 100 µM (inactive) | > 100 µM (inactive) | > 100 µM (inactive) | > 100 µM (inactive)
